Assay results published in US10702492B2, “PPARα activator, pharmaceutical composition, food and drink, food additive, supplement and method of manufacturing the same” (Marukome Co., Ltd., priority 2015, dated 2020).
Entries after “also recorded” stand apart in the source; their conditions may differ.

Columns and labels:
[1] = target: T1, human PPARα (Homo sapiens, UniProt Q07869); experiment: PPARα luciferase assay; format: cell-based; details: CV-1 cells, 1.3 μM, 24 hours after the addition; FIG. 6 and FIG. 7
T1 construct: expressed in transfected cells; host or cells: CV-1 cells
T1 sequence (Q07869 239-466 limits assumed): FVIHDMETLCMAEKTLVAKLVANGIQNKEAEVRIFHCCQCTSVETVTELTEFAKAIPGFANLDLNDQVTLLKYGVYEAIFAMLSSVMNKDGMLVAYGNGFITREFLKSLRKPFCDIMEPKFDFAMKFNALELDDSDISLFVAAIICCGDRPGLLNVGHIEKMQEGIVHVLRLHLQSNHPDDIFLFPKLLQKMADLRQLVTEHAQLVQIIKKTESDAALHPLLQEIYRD
Description: The PPARα activity of koji extract 1 was evaluated by PPARα luciferase assay. The assay was performed by a method as previously described (T. Goto et al., Biochemical and Biophysical Research Communications 337(2005) 440-445).
Specifically, CV-1 cells that were transfected with p4×UASg-tk-luc (reporter plasmid), pM-hPPARα (expression vector for DNA-binding domain of GAL4 and ligand-binding domain of human PPARα for chimeric protein), pRL-CMV (internal control for normalizing transfection efficiency) and Lipofectamine™ Reagent. The cells were cultured in a DMEM culture medium containing 10% FBS and penicillin/streptomycin (10 mg/mL).
The CV-1 cells were transfected with the vector with Lipofectamine and cultured for 24 hours. Then, the medium was replaced with a medium added with 0.1 mg/mL, 0.5 mg/mL or 5 mg/mL of the concentrated koji extract 1 with 70% ethanol (dilution rate: 50 times), respectively, and the CV-1 cells were further cultured for 24 hours. The measurement of luciferase activity was performed by using Dual-Luciferase(R) Reporter Assay System (Promega) and a luminometer (MicroLumat Plus, Berthold Japan Co., Ltd.) according to the protocols of the reagent and the luminometer.
As a positive control, a medium added with […] of a known PPARα agonist, GW-7647 (2-[4-[2-[1-(4-cyclohexylbutyl)-3-cyclohexylureido]ethyl]phenylthio]isobutyric acid) was used. […]

[2] = system: mouse primary-cultured hepatocytes; experiment: TG accumulation in mouse primary-cultured hepatocytes (TG kit); format: cell-based; details: 24 hours, 500 μM oleic acid medium, vs. negative control (CT+), FIG. 8
Description: The effect on the accumulation of triglyceride ([…]) of a koji extract was evaluated by using mouse primary-cultured hepatocytes and koji extract 1 used in Example 1.
Primary-cultured hepatocytes were prepared from hepatocytes separated from C57BL/6J mice (6 week old, male), and were seeded in a 12-well plate (2×10^5 cells/ml). After confirming the attachment of the cells to the plate at 3-5 hours after the seeding, the medium was replaced with a serum-free medium (low-glucose DMEM, 1% P/S, 500 μM oleic acid, 20 μg/mL BSA). At this time, koji extract 1 was added in an amount of 0.1 mg/mL or 1 mg/mL. As a positive control, a medium added with GW-7647 ([…]) was used.
At 24 hours after the addition, the amount of TG accumulation of the primary-cultured hepatocytes was measured with a TG kit (Wako). […] The error bar refers to SE (n=4), * is p<0.05, ** is p<0.01 (vs. control).
The effect on triglyceride (TG) accumulation of 9-HODE:10E,12E was evaluated by using mouse primary-cultured hepatocytes.
Primary-cultured hepatocytes were prepared from hepatocytes separated from C57BL/6J mice (6 week old, male), and seeded in a 12-well plate (2×10^5 cells/ml). […]
At 24 hours after the addition, the accumulation amount of TG was measured by using a TG kit (Wako). […]

CCCCC/C=C/C=C/C(O)CCCCCCCC(=O)O (stereo not drawn) [9-HODE:10E,12E, 9-hydroxy-10,12-octadecadienoic acid]
PPARα activity [1]: remarkably high; also recorded: relatively high
accumulation amount of TG ([2]; 3 μM): significant decrease
accumulation amount of TG ([2]; 10 μM): significant decrease
